Test results taken from patent publication US5536740A, “Skin care compositions containing dimethyl imidazolidinone and retinol or retinyl ester” (priority 1995, dated 1996).
“Also recorded” adds a separate entry of the source. Where two headings read alike, the source gives them in different places.

Assays:
[1] = system: TGase I in human keratinocytes; assay: ELISA based transglutaminase I (TGase I) assay of keratinocyte differentiation; type: cell-based
Protocol: (§1) Human keratinocytes, isolated from neonatal foreskin by trypsin treatment were grown in Dulbecco Modification Eagle (DME) Hams F12 (1:1) medium/10% fetal calf serum in the presence of irradiated 3T3 mouse fibroblasts for establishing dividing keratinocyte colonies. Cells were grown under the above condition until their second passage and kept frozen for future use. […] On day 7, when the cells were 80-90% confluent, they were trypsinized and plated in the serum-free medium for the various experiments.
Transglutaminase Assay and Keratinocyte Differentiation
During the process of terminal differentiation in the epidermis, a 15 nm thick layer of protein, known as the cornified envelope (CE) is formed on the inner surface of the cell periphery. The CE is composed of numerous distinct proteins which have been cross-linked together by the formation of N^ε -(γ-glutamyl)lysine isodipeptide bonds catalyzed by the action of at least two different transglutaminases (TGases) expressed in the epidermis. TGase 1 is expressed in abundance in the differentiated layers of the epidermis, especially the granular layer, but is absent in the undifferentiated basal epidermis. Thus TGase I is a useful marker of epidermal keratinocyte differentiation with high TGase I levels indicating a more differentiated state. An ELISA based TGase I assay, using a TGase I antibody, was used to assess the state of differentiation of the cultured keratinocytes in the examples that follow.
Keratinocytes (cultured as described above) were plated in 96 well plates at a density of 3,000 cells per well in 200 μl media. After incubation for four days the media was changed to media containing test compounds (six replicates per test). The cells were cultured for a further 72 hours after which time the media was aspirated and the plates stored at -70° C. Plates were removed from the freezer, and the cells washed with PBS. 100 μl sterile water was added and the cells were freeze fractured by freezing at -70° C. then thawing. The cells were incubated for one hour at room temperature (R/T) with PBS/3% BSA (wash buffer, bovine serum albumin), then rinsed with a fresh aliquot of wash buffer. Cells were incubated with 50 μl of primary antibodies monoclonal anti-human transglutaminase (IgG) obtained from Amersham (mouse) diluted 1:300 in wash buffer for one hour, 37° C. then rinsed two times with wash buffer. Cells were then incubated with 50 μl of secondary antibody (Feb fragment, peroxidase conjugated anti-mouse IgG obtaining from Amersham) diluted 1:200 in wash buffer for one hour at 37° C., then rinsed two times with wash buffer. Cells were incubated with substrate solution (4 mg o-phenylene diamine and 3.3 μl 30% H2 O2 in 10 ml 0.1M citrate buffer pH 5.0) for five minutes, R/T, in darkness (under aluminum foil). The reaction was stopped by the addition of 50 μl 4N […]. The absorbance of samples was read at 492 nm in the plate reader. Out of the six replicates, four were treated with both antibodies, two were treated only with the secondary antibody (i.e., to determine background binding of enzyme conjugated Ab). TGase levels were determined by subtracting background from the readings from each treatment and determining mean ±s.d. for the replicates exposed to both Ab.
The level of TGase-1 was normalized to DNA content of the cells in the same well thus eliminating variation due to differences in cell number. DNA quantitation is a particularly useful indicator of cell number, including keratinocyte cell number, because each cell has to all intents and purposes an identical genome and therefore an identical quantity of DNA. The total DNA content of a well of cells therefore is directly proportional to the cell number in that well. Quantitation of DNA was used to normalize the TGase data to cell number.
Keratinocytes were plated in 96 well plates at a density of 3,000 cells per well in […] media.

[2] = system: Human keratinocytes; assay: 3H-thymidine incorporation assay of keratinocyte proliferation; type: cell-based; settings: for mean Thymidine incorp/μg protein ± s.d / mean Thymidine incorp./μg protein ± s.d / activity at 0.25 µM / activity at 0.025 µM / activity at 0.0025 µM: 24 hours
Protocol: as §1
^3 H-Thymidine Incorporation and Keratinocyte Proliferation
The incorporation of ^3 H-thymidine by cultured keratinocytes was used as an assay of keratinocyte proliferation. Thymidine is one of four deoxynucleosides which are the monomeric units of DNA, the universal library of genetic information in the animal kingdom. Prior to cell division of a somatic cell such as a keratinocyte, the complete genome of the cell undergoing cell division is replicated. This involves large scale DNA synthesis by the cell and enables both daughter cells to receive identical copies of the genetic material. When ^3 H-thymidine is included in the culture media of keratinocytes which are synthesizing DNA in preparation for cell division then the labelled nucleoside is incorporated into the newly synthesized DNA. The extent of incorporation of ^3 -thymidine into a population of cells is proportional to the rate of DNA synthesis by this population of cells and therefore an indication of their cellular proliferation.
Keratinocytes (that were cultured as described above) were plated in 24 well plates at a density of 40,000 cells per well in 1 ml media. After incubation for four days or until the cells were 60-70% confluent, the media was changed. Test compounds were added (in triplicate) to the wells 24 hours after the media change, and four hours later 1 μCi^3 H-Thymidine in 50 μl media was added per well. Cells were incubated for a further 24 hours. Media was removed from the cells, 10% ice cold trichloroacetic acid (TCA) added and plates were incubated on ice for 30 minutes. Cells were washed five times with 5% TCA and allowed to dissolve in 500 μl 0.1M NaOH for at least one hour (usually overnight). The preparations were neutralized with 0.1M HCl; 50 μl of the cell preparation was used to determine total protein content. Disintegrations per minute (DPM) from a H labelling of DNA was determined by liquid scintillation counting of 900 μl of the cell preparation. Thymidine incorporation results were expressed as DPM/μg protein.

[3] = 2.5 × 10^-7 M, normalized to DNA, 72 hours, n = 3
[4] = 2.5 × 10^-8 M, normalized to DNA, 72 hours, n = 3
[5] = 2.5 × 10^-9 M (ROH line printed 2.5 × 10^-0 M), normalized to DNA, 72 hours, n = 3
[6] = Example 4, 2.5 × 10^-8 M, n = 3
[7] = Homo sapiens, Keratinocyte, 72 h, 2.5 × 10^-7 M, normalized to DNA, 72 hours, n = 3, read-out: mean TGase/DNA (% control)
[8] = Homo sapiens, Keratinocyte, 72 h, 2.5 × 10^-8 M, normalized to DNA, 72 hours, n = 3, read-out: mean TGase/DNA (% control)
[9] = Homo sapiens, Keratinocyte, 72 h, 2.5 × 10^-9 M (ROH line printed 2.5 × 10^-0 M), normalized to DNA, 72 hours, n = 3, read-out: mean TGase/DNA (% control)
[10] = Homo sapiens, Keratinocyte, 72 h, Example 4, 2.5 × 10^-8 M, n = 3, read-out: mean TGase (% control)
[11] = 2.5 × 10^-8 M, n = 3 (Examples 1-3)
[12] = Homo sapiens, Keratinocyte, 2.5 × 10^-7 M, n = 3, read-out: mean Thymidine incorp./μg protein (% control)
[13] = Homo sapiens, Keratinocyte, 2.5 × 10^-8 M, n = 3 (Examples 1-3), read-out: mean Thymidine incorp./μg protein (% control)
[14] = Homo sapiens, Keratinocyte, 2.5 × 10^-9 M, n = 3, read-out: mean Thymidine incorp./μg protein (% control)
[15] = Homo sapiens, Keratinocyte, Example 4, 2.5 × 10^-8 M, n = 3, read-out: mean Thymidine incorp/μg protein (% control)

| SMILES | effect on keratinocyte TGase level / differentiation (in words) [1] | effect on keratinocyte proliferation (in words) [2] | mean TGase/DNA × 10^-4 ± s.d [1, 3] | mean TGase/DNA × 10^-4 ± s.d [1, 4] | mean TGase/DNA × 10^-4 ± s.d [1, 5] | mean TGase ± s.d [1, 6] | activity at 0.25 µM [1, 7] | activity at 0.025 µM [1, 8] | activity at 0.0025 µM [1, 9] | activity at 0.025 µM [1, 10] | mean Thymidine incorp./μg protein ± s.d ([2]; 2.5 × 10^-7 M, n = 3) | mean Thymidine incorp./μg protein ± s.d [2, 11] | mean Thymidine incorp./μg protein ± s.d ([2]; 2.5 × 10^-9 M, n = 3) | mean Thymidine incorp/μg protein ± s.d [2, 6] | activity at 0.25 µM [2, 12] | activity at 0.025 µM [2, 13] | activity at 0.0025 µM [2, 14] | activity at 0.025 µM [2, 15] | further results |
| --- | --- | --- | --- | --- | --- | --- | --- | --- | --- | --- | --- | --- | --- | --- | --- | --- | --- | --- | --- |
| CN1CCN(C)C1=O [Dimethyl imidazolidinone, 1,3-dimethyl-2-imidazolidinone] | had no effect on keratinocyte TG1 levels | had no effect on keratinocyte proliferation on its own; also recorded: exerts little or no benefit | – | – | – | – | – | – | – | – | – | – | – | – | – | – | – | – | mean TGase ± s.d ([1]; Example 4, 10^-8 M, n = 3): 0.990 ± 0.251; activity at 0.01 µM ([1]; Homo sapiens, Keratinocyte, 72 h, read-out: mean TGase (% control)): 99%; mean Thymidine incorp/μg protein ± s.d ([2]; 10^-6 M, n = 3): 1892 ± 119 DPM/μg protein; mean Thymidine incorp/μg protein ± s.d ([2]; 10^-7 M, n = 3 (Example 3)): 2260 ± 166 DPM/μg protein; mean Thymidine incorp/μg protein ± s.d ([2]; 10^-9 M, n = 3): 2003 ± 128 DPM/μg protein; mean Thymidine incorp/μg protein ± s.d ([2]; Example 4, 10^-7 M, n = 3): 3214 ± 128 DPM/μg protein; activity at 1 µM ([2]; Homo sapiens, Keratinocyte, 24 h, read-out: mean Thymidine incorp/μg protein (% control), 10^-6 M, 24 hours, n = 3): 90%; activity at 0.1 µM ([2]; Homo sapiens, Keratinocyte, 24 h, read-out: mean Thymidine incorp/μg protein (% control), 10^-7 M, 24 hours, n = 3 (Example 3)): 108%; activity at 0.001 µM ([2]; Homo sapiens, Keratinocyte, 24 h, read-out: mean Thymidine incorp/μg protein (% control), 10^-9 M, 24 hours, n = 3): 96%; activity at 0.1 µM ([2]; Homo sapiens, Keratinocyte, 24 h, read-out: mean Thymidine incorp/μg protein (% control), Example 4, 10^-7 M, 24 hours, n = 3): 92% |
| CC1=C(/C=C/C(C)=C/C=C/C(C)=C/C(=O)O)C(C)(C)CCC1 [RA, retinoic acid, reference compound] | – | – | 0.16 ± 0.11 × 10^-4 | 1.34 ± 0.40 × 10^-4 | 1.87 ± 0.49 × 10^-4 | 0.155 ± 0.098 | 7% | 55% | 77% | 16% | 2475 ± 116 DPM/μg protein | 2686 ± 72 DPM/μg protein | 2556 ± 80 DPM/μg protein | 3691 ± 205 DPM/μg protein | 118% | 128% | 122% | 106% | mean TGase (% control) ([1]; Example 4, 2.5 × 10^-8 M, n = 3, 0.025 µM, 4320 min): 15%; effect on keratinocyte TGase level / differentiation (in words) ([1]; listed as Retinoic acid): decreased keratinocyte differentiation; effect on keratinocyte TGase level / differentiation (in words) ([1]; listed as retinoic acid): decreased keratinocyte TGase level over both the ethanol control and did so to a significantly greater extent than each of the corresponding 2.5×10^-7 M, 2.5×10^-8 M and 2.5×10^-9 M retinol treatments; activation at 0.025 µM ([2]; Homo sapiens, Keratinocyte, read-out: increase in keratinocyte thymidine incorporation over the 2.5×10^-8 M retinol treatment, Example 2, 2.5×10^-8 M): 28%; activation at 0.025 µM ([2]; Homo sapiens, Keratinocyte, read-out: increase in keratinocyte thymidine incorporation over the 2.5×10^-8 M retinyl palmitate treatment, Example 4, 2.5×10^-8 M): 6%; activation at 0.025 µM ([2]; Homo sapiens, Keratinocyte, read-out: increase in keratinocyte thymidine incorporation over the ethanol control, Example 2, 2.5×10^-8 M): 28%; activation at 0.025 µM ([2]; Homo sapiens, Keratinocyte, read-out: increase in keratinocyte thymidine incorporation over the ethanol control, Example 4, 2.5×10^-8 M): 6%; effect on keratinocyte proliferation (in words) ([2]; listed as Retinoic acid): increased keratinocyte proliferation; effect on keratinocyte proliferation (in words) ([2]; listed as retinoic acid): significantly increased keratinocyte proliferation over both the ethanol control and each of the 2.5×10^-7 M, 2.5×10^-8 M and 2.5×10^-9 M retinol treatments and they did so in a dose dependant manner |
| CC1=C(/C=C/C(C)=C/C=C/C(C)=C/CO)C(C)(C)CCC1 [ROH, Retinol] | – | completely ineffective at increasing keratinocyte proliferation | 1.14 ± 0.22 × 10^-4 | 1.89 ± 0.30 × 10^-4 | 2.70 ± 0.59 × 10^-4 | – | 47% | 77% | > 100% | – | 2218 ± 73 DPM/μg protein | 2034 ± 46 DPM/μg protein | 1977 ± 19 DPM/μg protein | – | 106% | 97% | 94% | – | effect on keratinocyte TGase level / differentiation (in words) ([1]; listed as Retinol): significantly less effective than retinoic acid at inhibiting keratinocyte differentiation; effect on keratinocyte TGase level / differentiation (in words) ([1]; listed as retinol): The decrease in transglutaminase level was dose dependant for both retinoic acid and retinol; mean Thymidine incorp./μg protein ± s.d ([2]; 2.5 × 10^-7 M, n = 3, listed as Retinol): 2218 ± 79 DPM/μg protein |
| CCCCCCCCCCCCCCCC(=O)OC/C=C(C)/C=C/C=C(C)/C=C/C1=C(C)CCCC1(C)C [Retinyl Palmitate (RP), retinyl palmitate] | significantly less effective than retinoic acid at inhibiting keratinocyte differentiation | completely ineffective at increasing keratinocyte proliferation | – | – | – | 0.790 ± 0.387 | – | – | – | 79% | – | – | – | 3386 ± 326 DPM/μg protein | – | – | – | 97% | – |
